Test results published in ChEMBL document CHEMBL5325408, “Design, synthesis, and biological activity studies on benzimidazole derivatives targeting myeloperoxidase” (Eur J Med Chem, 2023).

Columns and labels:
[1] = biological target: T1, Myeloperoxidase (Homo sapiens) (UniProt P05164); assay: Inhibition of human MPO using taurine as substrate assessed as reduction in substrate chlorination at 20 uM incubated for 30 mins by taurine-chloramine assay relative to control
T1 sequence (whole entry): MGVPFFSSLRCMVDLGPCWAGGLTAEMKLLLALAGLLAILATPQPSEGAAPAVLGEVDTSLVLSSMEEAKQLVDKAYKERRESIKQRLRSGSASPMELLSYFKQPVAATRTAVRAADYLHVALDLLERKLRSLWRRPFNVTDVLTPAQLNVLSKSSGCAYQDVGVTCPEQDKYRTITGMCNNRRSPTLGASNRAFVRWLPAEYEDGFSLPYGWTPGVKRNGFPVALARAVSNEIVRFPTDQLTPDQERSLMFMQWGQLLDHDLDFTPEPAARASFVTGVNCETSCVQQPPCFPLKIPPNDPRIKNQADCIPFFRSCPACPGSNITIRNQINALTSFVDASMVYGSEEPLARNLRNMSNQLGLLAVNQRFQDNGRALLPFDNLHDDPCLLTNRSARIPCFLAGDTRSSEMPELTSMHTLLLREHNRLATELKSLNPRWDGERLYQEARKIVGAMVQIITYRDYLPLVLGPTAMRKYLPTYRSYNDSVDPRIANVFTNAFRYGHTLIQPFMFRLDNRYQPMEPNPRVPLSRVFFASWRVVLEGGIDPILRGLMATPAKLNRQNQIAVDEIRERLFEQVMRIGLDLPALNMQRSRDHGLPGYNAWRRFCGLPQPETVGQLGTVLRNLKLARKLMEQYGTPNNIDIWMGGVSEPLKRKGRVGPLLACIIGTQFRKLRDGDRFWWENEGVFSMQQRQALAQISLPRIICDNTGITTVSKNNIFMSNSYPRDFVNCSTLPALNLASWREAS

[2] = Antioxidant activity assessed as HOCl scavenging activity at 100 uM incubated for 10 mins in presence of TNB and taurine by absorbance based assay relative to control; format: functional
Myeloperoxidase [3] = biological target: T2, Myeloperoxidase (Homo sapiens, UniProt P05164); assay: Inhibition of human MPO using taurine as substrate assessed as reduction in substrate chlorination incubated for 30 mins by taurine-chloramine assay
T2 sequence (P05164 whole entry): T1 sequence (whole entry)

[4] = biological target: T1, Myeloperoxidase (Homo sapiens); assay: Inhibition of human MPO peroxidase activity at 100 uM incubated in presence of H2O2 by amplex red assay relative to control
Myeloperoxidase [5] = biological target: T2, Myeloperoxidase; assay: Inhibition of human MPO peroxidase activity incubated in presence of H2O2 by amplex red assay

inhibition [1] [%]	SMILES	also measured
62.6	COc1cc(NC(=O)Cn2c(=S)[nH]c3ccccc32)cc(OC)c1OC	
81.7	COc1ccc(NC(=O)Cn2c(=S)[nH]c3ccccc32)cc1	Activity [2]: 2.83%; IC50 (Myeloperoxidase [3]): 4.08 µM; inhibition [4]: 30.5%
61.9	O=C(Cn1c(=S)[nH]c2ccccc21)Nc1cccc([N+](=O)[O-])c1	
95.3	O=C(Cn1c(=S)[nH]c2ccccc21)NCc1ccccc1	IC50 (Myeloperoxidase [3]): 4.33 µM; inhibition [4]: 53.3%; IC50 (Myeloperoxidase [5]): 97.3 µM
51.3	CCOC(=O)Cn1c(=S)[nH]c2ccccc21	
75.7	O=C(Cn1c(=S)[nH]c2ccccc21)Nc1cccc(Cl)c1	Activity [2]: 1.04%; IC50 (Myeloperoxidase [3]): 9.44 µM; inhibition [4]: 29.8%
65.5	COc1cccc(NC(=O)Cn2c(=S)[nH]c3ccccc32)c1	
58.2	O=C(Cn1c(=S)[nH]c2ccccc21)N1CCCCC1	
94.3	COc1ccccc1NC(=O)Cn1c(=S)[nH]c2ccccc21	Activity [2]: 8.77%; IC50 (Myeloperoxidase [3]): 3.72 µM; inhibition [4]: 19.1%
89.4	O=C(Cn1c(=S)[nH]c2ccccc21)Nc1ccccc1Cl	Activity [2]: 5.47%; IC50 (Myeloperoxidase [3]): 6.67 µM; inhibition [4]: 47.6%
93.2	NNC(=O)Cn1c(=S)[nH]c2ccccc21	IC50 (Myeloperoxidase [3]): 0.39 µM; inhibition [4]: 71%; IC50 (Myeloperoxidase [5]): 82.7 µM
85.3	O=C(Cn1c(=S)[nH]c2ccccc21)Nc1ccc(Cl)cc1	Activity [2]: 5.85%; IC50 (Myeloperoxidase [3]): 7.76 µM; inhibition [4]: 21.7%
91.9	O=C(Cn1c(=S)[nH]c2ccccc21)Nc1ccccc1	IC50 (Myeloperoxidase [3]): 5.64 µM; inhibition [4]: 57.5%; IC50 (Myeloperoxidase [5]): 95.4 µM
93	Cc1ccccc1NC(=O)Cn1c(=S)[nH]c2ccccc21	Activity [2]: 0.94%; IC50 (Myeloperoxidase [3]): 4.26 µM; inhibition [4]: 24%
91.4	Cc1cccc(NC(=O)Cn2c(=S)[nH]c3ccccc32)c1	Activity [2]: 6.79%; IC50 (Myeloperoxidase [3]): 3.86 µM; inhibition [4]: 26.7%
61.4	O=C(Cn1c(=S)[nH]c2ccccc21)Nc1ccc([N+](=O)[O-])cc1	
51.2	O=C(Cn1c(=S)[nH]c2ccccc21)NO	
52.2	O=C(Cn1c(=S)[nH]c2ccccc21)N1CCOCC1	
27.9	O=C(Cn1c(Cl)nc2ccccc21)Nc1ccccc1	
70.2	O=C(Cn1c(=S)[nH]c2ccccc21)Nc1ccccc1[N+](=O)[O-]	IC50 (Myeloperoxidase [3]): 5.63 µM; inhibition [4]: 22.6%
33.3	CCOC(=O)Cn1c(Cl)nc2ccccc21	

More lines, now with the values behind:

SMILES	inhibition [1] [%]	also measured
O=C(Cn1c(Cl)nc2ccccc21)N1CCCCC1	29.1	
O=C(CSc1nc2ccccc2[nH]1)Nc1ccc(Cl)cc1	52.6	
COc1ccccc1NC(=O)Cn1c(Cl)nc2ccccc21	39.3	
O=C(CSc1nc2ccccc2[nH]1)Nc1cccc([N+](=O)[O-])c1	62.3	
O=C(Cn1c(Cl)nc2ccccc21)Nc1ccc([N+](=O)[O-])cc1	54	
COc1cc(NC(=O)Cn2c(Cl)nc3ccccc32)cc(OC)c1OC	35.7	
Cc1ccc(NC(=O)CSc2nc3ccccc3[nH]2)cc1	73	IC50 (Myeloperoxidase [3]): 8.51 µM; inhibition [4]: 0%
O=C(CSc1nc2ccccc2[nH]1)N1CCOCC1	35.9	
Cc1ccc(NC(=O)Cn2c(Cl)nc3ccccc32)cc1	36.5	
O=C(Cn1c(Cl)nc2ccccc21)NCc1ccccc1	24.9	
Cc1cccc(NC(=O)Cn2c(Cl)nc3ccccc32)c1	34.8	
O=C(CSc1nc2ccccc2[nH]1)Nc1ccc([N+](=O)[O-])cc1	62.1	
O=C(CSc1nc2ccccc2[nH]1)NCc1ccccc1	63.6	
Cc1ccc(NC(=O)Cn2c(S)nc3ccccc32)cc1	41.1	
O=C(CSc1nc2ccccc2[nH]1)Nc1ccccc1Cl	54.4	
O=C(Cn1c(Cl)nc2ccccc21)N1CCOCC1	32.7	
Cc1ccccc1NC(=O)CSc1nc2ccccc2[nH]1	44.9	

SMILES	inhibition [1] [%]	also measured
O=C(Cn1c(Cl)nc2ccccc21)Nc1ccccc1[N+](=O)[O-]	31.8	
O=C(CSc1nc2ccccc2[nH]1)N1CCCCC1	32	
COc1ccc(NC(=O)Cn2c(Cl)nc3ccccc32)cc1	36.9	
Cc1ccccc1NC(=O)Cn1c(Cl)nc2ccccc21	28.5	
COc1cccc(NC(=O)Cn2c(Cl)nc3ccccc32)c1	46.6	
COc1cc(NC(=O)CSc2nc3ccccc3[nH]2)cc(OC)c1OC	68.9	
COc1ccccc1NC(=O)CSc1nc2ccccc2[nH]1	72.6	IC50 (Myeloperoxidase [3]): 10.4 µM; inhibition [4]: 0%
O=C(Cn1c(Cl)nc2ccccc21)Nc1ccccc1Cl	21.9	
O=C(CSc1nc2ccccc2[nH]1)Nc1ccccc1	50	
COc1cccc(NC(=O)CSc2nc3ccccc3[nH]2)c1	61.4	
O=C(CSc1nc2ccccc2[nH]1)Nc1ccccc1[N+](=O)[O-]	48.5	
COc1ccc(NC(=O)CSc2nc3ccccc3[nH]2)cc1	50	
Cc1cccc(NC(=O)CSc2nc3ccccc3[nH]2)c1	92.5	IC50 (Myeloperoxidase [3]): 6.41 µM; inhibition [4]: 4.3%
O=C(Cn1c(Cl)nc2ccccc21)Nc1ccc(Cl)cc1	63.8	
O=C(CSc1nc2ccccc2[nH]1)Nc1cccc(Cl)c1	56.1	
O=C(Cn1c(Cl)nc2ccccc21)Nc1cccc(Cl)c1	67.8	
O=C(Cn1c(Cl)nc2ccccc21)Nc1cccc([N+](=O)[O-])c1	44	
